Experimental data reported in ChEMBL document CHEMBL4138123, “Design, synthesis and biological evaluation of novel pyrazolochalcones as potential modulators of PI3K/Akt/mTOR pathway and inducers of apoptosis in breast cancer cells” (Eur J Med Chem, 2017).

Legend:
Format in all cases: functional
SN12C = assay: Cytotoxicity against human SN12C cells assessed as cell growth at 1 uM after 48 hrs by sulforhodamine B assay relative to control; conditions: read-out: Activity
TK-10 = assay: Cytotoxicity against human TK10 cells assessed as cell growth at 10 uM after 48 hrs by sulforhodamine B assay relative to control; conditions: TK-10, 48 h, read-out: Activity
PC-3 = assay: Cytotoxicity against human PC3 cells assessed as cell growth at 1 uM after 48 hrs by sulforhodamine B assay relative to control; conditions: PC-3, 48 h, read-out: Activity
HOP-62 [1] = assay: Cytotoxicity against human HOP62 cells assessed as cell growth at 0.01 uM after 48 hrs by sulforhodamine B assay relative to control; conditions: HOP-62, 48 h, read-out: Activity
KM12 = assay: Cytotoxicity against human KM12 cells assessed as cell growth at 0.01 uM after 48 hrs by sulforhodamine B assay relative to control; conditions: KM12, 48 h, read-out: Activity
UO-31 = assay: Cytotoxicity against human UO31 cells assessed as cell growth at 0.1 uM after 48 hrs by sulforhodamine B assay relative to control; conditions: UO-31, 48 h, read-out: Activity
NCI-H460 [2] = assay: Cytotoxicity against human NCI-H460 cells assessed as cell growth at 100 uM after 48 hrs by sulforhodamine B assay relative to control; conditions: NCI-H460, 48 h, read-out: Activity
SK-MEL-5 = assay: Cytotoxicity against human SK-MEL-5 cells assessed as cell growth at 10 uM after 48 hrs by sulforhodamine B assay relative to control; conditions: SK-MEL-5, 48 h, read-out: Activity
A498 [3] = assay: Cytotoxicity against human A498 cells assessed as cell growth at 10 uM after 48 hrs by sulforhodamine B assay relative to control; conditions: A498, 48 h, read-out: Activity
HT-29 = assay: Cytotoxicity against human HT-29 cells assessed as cell growth at 0.1 uM after 48 hrs by sulforhodamine B assay relative to control; conditions: HT-29, 48 h, read-out: Activity
NCI-H460 [4] = assay: Cytotoxicity against human NCI-H460 cells assessed as cell growth at 0.01 uM after 48 hrs by sulforhodamine B assay relative to control; conditions: NCI-H460, 48 h, read-out: Activity
UACC-257 [5] = assay: Cytotoxicity against human UACC257 cells assessed as cell growth at 100 uM after 48 hrs by sulforhodamine B assay relative to control; conditions: UACC-257, 48 h, read-out: Activity
NCI-H522 = assay: Cytotoxicity against human NCI-H522 cells assessed as growth inhibition after 48 hrs by sulforhodamine B assay; conditions: NCI-H522, 48 h
NCI-H322M [6] = assay: Cytotoxicity against human NCI-H322M cells assessed as cell growth at 100 uM after 48 hrs by sulforhodamine B assay relative to control; conditions: read-out: Activity
HL-60(TB) = assay: Cytotoxicity against human HL-60(TB) cells assessed as cell growth at 10 uM after 48 hrs by sulforhodamine B assay relative to control; conditions: HL-60, 48 h, read-out: Activity
SK-MEL-28 [7] = assay: Cytotoxicity against human SK-MEL-28 cells assessed as cell growth at 10 uM after 48 hrs by sulforhodamine B assay relative to control; conditions: SK-MEL-28, 48 h, read-out: Activity
HOP-62 [8] = assay: Cytotoxicity against human HOP62 cells assessed as cell growth at 100 uM after 48 hrs by sulforhodamine B assay relative to control; conditions: HOP-62, 48 h, read-out: Activity
NCI-H322M [9] = assay: Cytotoxicity against human NCI-H322M cells assessed as cell growth at 0.1 uM after 48 hrs by sulforhodamine B assay relative to control; conditions: read-out: Activity
RPMI-8226 = assay: Cytotoxicity against human RPMI8226 cells assessed as cell growth at 10 uM after 48 hrs by sulforhodamine B assay relative to control; conditions: RPMI-8226, 48 h, read-out: Activity
SR = assay: Cytotoxicity against human SR cells assessed as cell growth at 0.1 uM after 48 hrs by sulforhodamine B assay relative to control; conditions: read-out: Activity
DU-145 = assay: Cytotoxicity against human DU145 cells assessed as cell growth at 10 uM after 48 hrs by sulforhodamine B assay relative to control; conditions: DU-145, 48 h, read-out: Activity
SF-268 = assay: Cytotoxicity against human SF268 cells assessed as cell growth at 0.01 uM after 48 hrs by sulforhodamine B assay relative to control; conditions: SF-268, 48 h, read-out: Activity
MDA-MB-468 = assay: Cytotoxicity against human MDA-MB-468 cells assessed as growth inhibition after 48 hrs by sulforhodamine B assay; conditions: MDA-MB-468, 48 h
UACC-62 = assay: Cytotoxicity against human UACC62 cells assessed as cell growth at 0.01 uM after 48 hrs by sulforhodamine B assay relative to control; conditions: UACC-62, 48 h, read-out: Activity
HCT-15 [10] = assay: Cytotoxicity against human HCT15 cells assessed as cell growth at 10 uM after 48 hrs by sulforhodamine B assay relative to control; conditions: HCT-15, 48 h, read-out: Activity
HCT-15 [11] = assay: Cytotoxicity against human HCT15 cells assessed as cell growth at 0.1 uM after 48 hrs by sulforhodamine B assay relative to control; conditions: HCT-15, 48 h, read-out: Activity
SK-MEL-28 [12] = assay: Cytotoxicity against human SK-MEL-28 cells assessed as cell growth at 0.1 uM after 48 hrs by sulforhodamine B assay relative to control; conditions: SK-MEL-28, 48 h, read-out: Activity
COLO 205 = assay: Cytotoxicity against human COLO205 cells assessed as growth inhibition after 48 hrs by sulforhodamine B assay; conditions: COLO 205, 48 h
UACC-257 [13] = assay: Cytotoxicity against human UACC257 cells assessed as cell growth at 10 uM after 48 hrs by sulforhodamine B assay relative to control; conditions: UACC-257, 48 h, read-out: Activity
OVCAR-5 = assay: Cytotoxicity against human OVCAR5 cells assessed as cell growth at 0.01 uM after 48 hrs by sulforhodamine B assay relative to control; conditions: OVCAR-5, 48 h, read-out: Activity
RXF 393 = assay: Cytotoxicity against human RXF393 cells assessed as growth inhibition after 48 hrs by sulforhodamine B assay; conditions: RXF 393, 48 h
A498 [14] = assay: Cytotoxicity against human A498 cells assessed as cell growth at 1 uM after 48 hrs by sulforhodamine B assay relative to control; conditions: A498, 48 h, read-out: Activity
Hs-578T = assay: Cytotoxicity against human Hs 578T cells assessed as cell growth at 1 uM after 48 hrs by sulforhodamine B assay relative to control; conditions: read-out: Activity
HCT-116 = assay: Cytotoxicity against human HCT116 cells assessed as growth inhibition after 48 hrs by sulforhodamine B assay; conditions: HCT-116, 48 h
MCF7 = assay: Cytotoxicity against human MCF7 cells assessed as cell growth at 0.01 uM after 48 hrs by sulforhodamine B assay relative to control; conditions: MCF7, 48 h, read-out: Activity
MOLT-4 = assay: Cytotoxicity against human MOLT4 cells assessed as cell growth at 100 uM after 48 hrs by sulforhodamine B assay relative to control; conditions: MOLT-4, 48 h, read-out: Activity

Structure (SMILES): COc1ccc(C(=O)/C=C/c2cc(-c3ccc(OC)c(OC)c3)n[nH]2)cc1OC
- growth at 1 µM (SN12C): 85%
- growth at 10 µM (TK-10): 25%
- growth at 1 µM (PC-3): 69%
- growth at 0.01 µM (HOP-62 [1]): 83%
- growth at 0.01 µM (KM12): 102%
- growth at 0.1 µM (UO-31): 91%
- growth at 100 µM (NCI-H460 [2]): -42%
- growth at 10 µM (SK-MEL-5): -97%
- growth at 10 µM (A498 [3]): -62%
- growth at 0.1 µM (HT-29): 96%
- growth at 0.01 µM (NCI-H460 [4]): 102%
- growth at 100 µM (UACC-257 [5]): -70%
- GI50 (NCI-H522): 1.69 µM
- TGI (NCI-H522): 3.9 µM
- growth at 100 µM (NCI-H322M [6]): -48%
- growth at 10 µM (HL-60(TB)): 4%
- growth at 10 µM (SK-MEL-28 [7]): -38%
- growth at 100 µM (HOP-62 [8]): -13%
- growth at 0.1 µM (NCI-H322M [9]): 105%
- growth at 10 µM (RPMI-8226): -30%
- growth at 0.1 µM (SR): 81%
- growth at 10 µM (DU-145): -34%
- growth at 0.01 µM (SF-268): 96%
- GI50 (MDA-MB-468): 1.09 µM
- TGI (MDA-MB-468): 2.55 µM
- growth at 0.01 µM (UACC-62): 95%
- growth at 10 µM (HCT-15 [10]): -19%
- growth at 0.1 µM (HCT-15 [11]): 95%
- growth at 0.1 µM (SK-MEL-28 [12]): 95%
- GI50 (COLO 205): 1.55 µM
- TGI (COLO 205): 3.1 µM
- growth at 10 µM (UACC-257 [13]): -41%
- growth at 0.01 µM (OVCAR-5): 88%
- GI50 (RXF 393): 1.45 µM
- TGI (RXF 393): 2.98 µM
- growth at 1 µM (A498 [14]): 63%
- growth at 1 µM (Hs-578T): 87%
- GI50 (HCT-116): 0.369 µM
- TGI (HCT-116): 1.71 µM
- growth at 0.01 µM (MCF7): 85%

Structure (SMILES): COc1cc(C(=O)/C=C/c2cc(-c3cc(OC)c(OC)c(OC)c3)n[nH]2)cc(OC)c1OC
- growth at 1 µM (SN12C): 78%
- growth at 10 µM (TK-10): -98%
- growth at 1 µM (PC-3): 74%
- growth at 100 µM (MOLT-4): -15%
- growth at 0.01 µM (HOP-62 [1]): 97%
- growth at 0.01 µM (KM12): 101%
- growth at 0.1 µM (UO-31): 90%
- growth at 100 µM (NCI-H460 [2]): -55%
- growth at 10 µM (SK-MEL-5): -98%
- growth at 10 µM (A498 [3]): -64%
- growth at 0.1 µM (HT-29): 102%
- growth at 0.01 µM (NCI-H460 [4]): 102%
- growth at 100 µM (UACC-257 [5]): -99%
- LC50 (NCI-H522): 4.22 µM
- TGI (NCI-H522): 1.7 µM
- growth at 100 µM (NCI-H322M [6]): -99%
- growth at 10 µM (HL-60(TB)): -28%
- growth at 10 µM (SK-MEL-28 [7]): -92%
- growth at 100 µM (HOP-62 [8]): -100%
- growth at 0.1 µM (NCI-H322M [9]): 97%
- growth at 10 µM (RPMI-8226): -38%
- growth at 0.1 µM (SR): 93%
- growth at 0.01 µM (SF-268): 99%
- GI50 (MDA-MB-468): 1.15 µM
- LC50 (MDA-MB-468): 5.37 µM
- TGI (MDA-MB-468): 2.48 µM
- growth at 0.01 µM (UACC-62): 97%
- growth at 10 µM (HCT-15 [10]): -71%
- growth at 0.1 µM (HCT-15 [11]): 94%
- growth at 0.1 µM (SK-MEL-28 [12]): 105%
- LC50 (COLO 205): 5.59 µM
- TGI (COLO 205): 3.13 µM
- growth at 10 µM (UACC-257 [13]): -93%
- growth at 0.01 µM (OVCAR-5): 97%
- LC50 (concentration killing 50% of cells) (RXF 393): 5.68 µM
- TGI (RXF 393): 2.67 µM
- growth at 1 µM (A498 [14]): 80%
- growth at 1 µM (Hs-578T): 80%
- LC50 (HCT-116): 5.12 µM
- TGI (HCT-116): 2.59 µM
- growth at 0.01 µM (MCF7): 95%
